This is an account of results in patent publication US5563145A, “Rapamycin 42-oximes and hydroxylamines” (American Home Products Corporation, priority 1994, dated 1996).

Where two headings read alike, the source gives them in different places.

Experiment [1] concerns cells from the thymus of normal BALB/c mice (T-cell proliferation). As to the kind of experiment: comitogen-induced thymocyte proliferation procedure (LAF). To be noted: for IC50: read-out: LAF IC50; for LAF ratio (compared with rapamycin): ratio >1: inhibited thymocyte proliferation to a greater extent than rapamycin; for LAF percent inhibition of T-cell proliferation: at 0.1 μM. The experiment is classed as cell-based. As to the method: (§1) Immunosuppressive activity for representative compounds of this invention was evaluated in an in vitro standard pharmacological test procedure to measure the inhibition of lymphocyte proliferation (LAF) and in two in vivo standard pharmacological test procedures. The pinch skin graft test procedure measures the immunosuppressive activity of the compound tested as well as the ability of the compound tested to inhibit or treat transplant rejection. The adjuvant arthritis standard pharmacological test procedure measures the ability of the compound tested to inhibit immune mediated inflammation. The adjuvant arthritis test procedure is a standard pharmacological test procedure for rheumatoid arthritis. The procedures for these standard pharmacological test procedures are provided below.
The comitogen-induced thymocyte proliferation procedure (LAF) was used as an in vitro measure of the immunosuppressive effects of representative compounds. Briefly, cells from the thymus of normal BALB/c mice are cultured for 72 hours with PHA and IL-1 and pulsed with tritiated thymidine during the last six hours. Cells are cultured with and without various concentrations of rapamycin, cyclosporin A, or test compound. Cells are harvested and incorporated radioactivity is determined. Inhibition of lymphoproliferation is assessed as percent change in counts per minute from non-drug treated controls. For each compound evaluated, rapamycin was also evaluated for the purpose of comparison. An IC50 was obtained for each test compound as well as for rapamycin. […] The results obtained are provided as an IC50 and as the percent inhibition of T-cell proliferation at 0.1 μM. […] A positive ratio indicates immunosuppressive activity. […] Calculation of the ratio is shown below. [formula]

The test system of experiment [2] is pinch skin graft from male BALB/c donors transplanted to male C3H(H-2K) recipients. As to the kind of experiment: in vivo pinch skin graft survival test procedure. Further details: species or system mice: male BALB/c donors, male C3 H(H-2K) recipients. To be noted: 4 mg/kg, i.p.; untreated control grafts usually rejected within 6-7 days. The protocol:
as §1
Representative compounds of this invention were also evaluated in an in vivo test procedure designed to determine the survival time of pinch skin graft from male BALB/c donors transplanted to male C3 H(H-2K) recipients. The method is adapted from Billingham R. E. and Medawar P. B., J. Exp. Biol. 28:385-402, (1951). Briefly, a pinch skin graft from the donor was grafted on the dorsum of the recipient as a allograft, and an isograft was used as control in the same region. The recipients were treated with either varying concentrations of test compounds intraperitoneally or orally. Rapamycin was used as a test control. Untreated recipients serve as rejection control. The graft was monitored daily and observations were recorded until the graft became dry and formed a blackened scab. This was considered as the rejection day. The mean graft survival time (number of days ±S.D.) of the drug treatment group was compared with the control group. Results are expressed as the mean survival time in days.

For experiment [3], the system named is uninjected hind paw inflammation (immune mediated, Freund's Complete Adjuvant). As to the kind of experiment: adjuvant arthritis standard pharmacological test procedure. The settings on record: 2 mg/kg, oral, 7 doses, day 16; more negative = more potent. The experiment is classed as in vivo, male inbred Wistar Lewis rats. The protocol:
as §1
The adjuvant arthritis standard pharmacological test procedure measures the ability of test compounds to prevent immune mediated inflammation and inhibit or treat rheumatoid arthritis. The following briefly describes the test procedure used. A group of rats (male inbread Wistar Lewis rats) are pre-treated with the compound to be tested (1 h prior to antigen) and then injected with Freud's Complete Adjuvant (FCA) in the right hind paw to induce arthritis. The rats are then orally dosed on a Monday, Wednesday, Friday schedule from day 0-14 for a total of 7 doses. Both hind paws are measured on days 16, 23, and 30. The difference in paw volume (mL) from day 16 to day 0 is determined and a percent change from control is obtained. The left hind paw (uninjected paw) inflammation is caused by T-cell mediated inflammation and is recorded as % change from control. The right hind paw inflammation, on the other hand, is caused by nonspecific inflammation. Compounds were tested at a dose of 2 mg/kg.

A further experiment deals with Candida albicans. To be noted: in vitro and in vivo; cited from earlier work.
Experiment [4] deals with experimental allergic encephalomyelitis model. The settings on record: a model for multiple sclerosis; cited from earlier work.
The subject of another experiment is adjuvant arthritis model. The settings on record: a model for rheumatoid arthritis; cited from earlier work.
Experiment [5] has as its system formation of IgE-like antibodies. To be noted: in vivo; cited from earlier work.
[6] abbreviates: BALB/c mouse thymocytes, PHA and IL-1, 72 hours, tritiated thymidine last six hours.

For `CO[C@H]1C[C@@H]2CC[C@@H](C)[C@@](O)(O2)C(=O)C(=O)N2CCCC[C@H]2C(=O)O[C@H]([C@H](C)C[C@@H]2CCC(=NOC(N)=O)[C@H](OC)C2)CC(=O)[C@H](C)/C=C(\C)[C@@H](O)[C@@H](OC)C(=O)[C@H](C)C[C@H](C)/C=C/C=C/C=C/1C` [Example 4, 42-Deoxy-42-oxorapamycin-42-O-carbamoyloxime], the IC50 in experiment [1] (setting [6]) turned out to be 2 nM. Further, in experiment [1], the “LAF ratio (compared with rapamycin)” value was found to be 0.25. Also, in experiment [2], the “Skin graft survival (mean graft survival time ± S.D.)” value (“Skin graft survival” for short) amounted to 9.5 ± 1.1 days.
With “42-Deoxy-42-oxorapamycin 42-[O-(pyridin-4-ylmethyl)]-oxime [Example 6]”, the IC50 in experiment [1] (setting [6]) turned out to be 1.8 nM. In addition, the “LAF ratio (compared with rapamycin)” value in experiment [1] stood at 0.31. The “Skin graft survival” value in experiment [2] was 8.0 ± 0.9 days.
Consider `CO[C@H]1C[C@@H]2CC[C@@H](C)[C@@](O)(O2)C(=O)C(=O)N2CCCC[C@H]2C(=O)O[C@H]([C@H](C)C[C@@H]2CCC(NO)[C@H](OC)C2)CC(=O)[C@H](C)/C=C(\C)[C@@H](O)[C@@H](OC)C(=O)[C@H](C)C[C@H](C)/C=C/C=C/C=C/1C` (stereo partly shown) [Example 3, 42-Deoxo-42-(hydroxyamino)rapamycin], for which the IC50 in experiment [1] (setting [6]) was determined as 5.6 nM. In experiment [1], the “LAF ratio (compared with rapamycin)” value was 0.18. Also, in experiment [2], the “Skin graft survival” value was found to be 9.6 ± 0.0 days. Also, the “Percent change in adjuvant arthritis versus control (uninjected paw)” value (“Percent change” below) in experiment [3] is -84%.
For `CO[C@H]1C[C@@H]2CC[C@@H](C)[C@@](O)(O2)C(=O)C(=O)N2CCCC[C@H]2C(=O)O[C@H]([C@H](C)C[C@@H]2CCC(=NO)[C@H](OC)C2)CC(=O)[C@H](C)/C=C(\C)[C@@H](O)[C@@H](OC)C(=O)[C@H](C)C[C@H](C)/C=C/C=C/C=C/1C` [Example 2, 42-Deoxo-42-(hydroxyimino)rapamycin], the IC50 in experiment [1] (setting [6]) was 3.88 nM. In addition, the “LAF ratio (compared with rapamycin)” value in experiment [1] was 0.85. For the same compound, the “Skin graft survival” value in experiment [2] is 10.8 ± 0.4 days.
Consider `CO[C@H]1C[C@@H]2CC[C@@H](C)[C@@](O)(O2)C(=O)C(=O)N2CCCC[C@H]2C(=O)O[C@H]([C@H](C)C[C@@H]2CCC(=NOCc3ccccn3)[C@H](OC)C2)CC(=O)[C@H](C)/C=C(\C)[C@@H](O)[C@@H](OC)C(=O)[C@H](C)C[C@H](C)/C=C/C=C/C=C/1C` [Example 5, 42-Deoxy-42-oxorapamycin 42-[O-(pyridin-2-ylmethyl)]-oxime], for which the half-inhibitory concentration (IC50) in experiment [1] (setting [6]) stood at 1.5 nM. The “LAF ratio (compared with rapamycin)” value in experiment [1] is reported as 0.40. For the same compound, the “Skin graft survival” value in experiment [2] is 7.8 ± 0.8 days. Moreover, the “Percent change” value in experiment [3] is reported as -53%.
Take “42-Deoxy-42-oxorapamycin 42-[O-(prop-2-ynyl)]-oxime [Example 10]”: the 50% inhibitory concentration (IC50) in experiment [1] (setting [6]) is 8.13 nM. Besides, the “LAF ratio (compared with rapamycin)” value in experiment [1] came out at 0.08. The “Skin graft survival” value in experiment [2] turned out to be 8.0 ± 1.1 days.
For the compound `C=CCON=C1CCC(CC(C)C2CC(=O)C(C)C=C(C)C(O)C(OC)C(=O)C(C)CC(C)C=CC=CC=C(C)C(OC)CC3CCC(C)C(O)(O3)C(=O)C(=O)N3CCCCC3C(=O)O2)CC1OC` (stereo not shown) [Example 9, 42-Deoxy-42-oxorapamycin 42-(O-allyl)-oxime], in experiment [1], the “LAF percent inhibition of T-cell proliferation” value is given as 43%.
For “42-Deoxy-42-oxorapamycin 42-[O-(phenylmethyl)]-oxime [Example 8]”, the half-maximal inhibitory concentration (IC50) in experiment [1] (setting [6]) was found to be 21.7 nM. Also, the “LAF ratio (compared with rapamycin)” value in experiment [1] stood at 0.03.
Regarding `COC1CC2CCC(C)C(O)(O2)C(=O)C(=O)N2CCCCC2C(=O)OC(C(C)CC2CCC(=NOC(C)(C)C)C(OC)C2)CC(=O)C(C)C=C(C)C(O)C(OC)C(=O)C(C)CC(C)C=CC=CC=C1C` (stereo not shown) [Example 7, 2-Deoxy-42-oxoxapamycin 42-[O-(tert-butyl)]-oxime], the “LAF percent inhibition of T-cell proliferation” value in experiment [1] is 49%.
As for `CO[C@H]1C[C@@H]2CC[C@@H](C)[C@@](O)(O2)C(=O)C(=O)N2CCCC[C@H]2C(=O)O[C@H]([C@H](C)C[C@@H]2CC[C@@H](O)[C@H](OC)C2)CC(=O)[C@H](C)/C=C(\C)[C@@H](O)[C@@H](OC)C(=O)[C@H](C)C[C@H](C)/C=C/C=C/C=C/1C` [rapamycin], the concentration for half-maximal inhibition (IC50) in experiment [1] (Mus musculus, T-cell) is 0.5 to 3.3 nM. In experiment [2], the “Skin graft survival” value was found to be 11.67 ± 0.63 days. Further, the “Percent change” value in experiment [3] is -70%. For the same compound, the “antifungal activity, particularly against Candida albicans” value in the experiment on Candida albicans is “antifungal activity, particularly against Candida albicans”. The “effect in experimental allergic encephalomyelitis model” value in experiment [4] is “effective”. The “effect in adjuvant arthritis model” value in the experiment on adjuvant arthritis model is on record as “effective”. Besides, the “inhibition of formation of IgE-like antibodies” value in experiment [5] is on record as “effectively inhibited”.

For orientation: IC50 means the midpoint of a concentration-inhibition curve.
